This note sets out measurements from article PMC7515950, “Physiologically based pharmacokinetic modeling to assess metabolic drug–drug interaction risks and inform the drug label for fedratinib” (Cancer Chemotherapy and Pharmacology, 2020).

For one series, the target named is T1, OATP1B3 (Homo sapiens, UniProt Q9NPD5).
T1 sequence (Q9NPD5 1-702): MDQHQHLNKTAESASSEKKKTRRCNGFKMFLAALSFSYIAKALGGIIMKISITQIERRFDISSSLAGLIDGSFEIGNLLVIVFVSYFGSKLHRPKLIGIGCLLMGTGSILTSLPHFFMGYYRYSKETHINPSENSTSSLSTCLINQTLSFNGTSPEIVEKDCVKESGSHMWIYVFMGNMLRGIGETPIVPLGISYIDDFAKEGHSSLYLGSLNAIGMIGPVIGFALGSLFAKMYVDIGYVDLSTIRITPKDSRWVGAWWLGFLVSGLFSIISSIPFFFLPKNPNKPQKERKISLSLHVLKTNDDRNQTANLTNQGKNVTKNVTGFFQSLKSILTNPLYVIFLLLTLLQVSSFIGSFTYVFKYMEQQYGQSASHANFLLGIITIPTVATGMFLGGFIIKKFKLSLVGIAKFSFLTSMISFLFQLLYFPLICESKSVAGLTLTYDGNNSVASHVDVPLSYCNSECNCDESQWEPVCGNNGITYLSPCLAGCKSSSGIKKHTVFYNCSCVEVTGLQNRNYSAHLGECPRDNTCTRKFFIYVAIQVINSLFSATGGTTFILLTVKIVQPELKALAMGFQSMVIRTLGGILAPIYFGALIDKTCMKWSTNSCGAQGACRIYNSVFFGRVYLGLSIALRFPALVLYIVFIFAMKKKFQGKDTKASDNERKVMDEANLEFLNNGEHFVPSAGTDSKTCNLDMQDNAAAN
The series is described as follows: OATP1B3 inhibition, HEK-hOATP1B3 cells (TRE0075). Format: in vitro ADME. More on the design: expressed in transfected cells; host or cells: HEK^TR-hOATP1B3. From the text:
The reported IC50 values were converted to Ki values using the Cheng-Prusoff equation [10]:
The transporter inhibition parameters (Ki) for fedratinib were derived from the experimentally determined IC50 values using the Cheng-Prusoff equation, i.e., Ki = IC50/(1+[S]/Km) with the substrate concentrations ([S]) reported in the experimental studies and the substrate Km values collected from literature, as summarized in Table 13.

A short description of series [1]: Clinical single-dose PK of fedratinib in healthy subjects. In kind it is in vivo, human. The note with it: corresponding to dose-normalized AUC of 30 ng·h/(mL·mg). The protocol:
First, the developed PBPK model was verified against clinical observations in healthy subjects administered single doses of 300 mg fedratinib alone without further modifications. Second, the developed PBPK model was verified against clinical data under repeated dosing scenarios. As no repeated-dosing studies have been conducted in healthy volunteers, the model verification was conducted using the clinical PK profiles from myelofibrosis (MF) patients administered repeated doses of 300, 400, or 500 mg fedratinib once a day (QD). Third, the PBPK model of fedratinib was verified against the clinical data observed in healthy volunteers co-dosed with fedratinib (300 mg, single dose) and ketoconazole (200 mg BID).
AUC refers to AUCinf for the single dose scenarios and AUCτ for the repeated QD dose scenarios. The number of subjects (n) = 6 in TDU12620, n = 17 in INT12894, n = 10-11 in ARD11936, and n = 100 in virtual trial simulations, respectively. All model simulations listed in the table were simulated using the default “Healthy Volunteers” and “Cancer” population files provided in Simcyp® (V17R1). The prediction error is calculated using PE = (GMprediction – GMobservation)/GMobservation ×100%, where GM refers to geometric mean. SD refers to standard deviation.

A further series deals with T2, CYP2C8 (Homo sapiens, UniProt P10632).
T2 construct: from tissue; host or cells: human liver microsomes
T2 sequence (P10632 1-490): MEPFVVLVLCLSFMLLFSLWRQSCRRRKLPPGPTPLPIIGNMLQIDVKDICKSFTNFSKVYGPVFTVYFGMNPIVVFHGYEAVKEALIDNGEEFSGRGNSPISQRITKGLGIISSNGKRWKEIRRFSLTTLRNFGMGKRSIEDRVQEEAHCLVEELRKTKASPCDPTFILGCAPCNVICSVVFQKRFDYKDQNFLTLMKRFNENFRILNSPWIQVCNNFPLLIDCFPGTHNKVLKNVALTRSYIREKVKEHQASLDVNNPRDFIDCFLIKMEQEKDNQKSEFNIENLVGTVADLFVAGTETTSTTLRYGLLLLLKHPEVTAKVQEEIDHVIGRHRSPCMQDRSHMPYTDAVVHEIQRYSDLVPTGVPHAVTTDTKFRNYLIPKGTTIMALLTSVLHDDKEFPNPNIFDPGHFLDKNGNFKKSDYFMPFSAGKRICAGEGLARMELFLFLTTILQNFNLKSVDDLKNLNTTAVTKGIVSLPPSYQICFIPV
Put plainly: CYP inhibition in human liver microsomes (MIH0887), CYP2C8. Format: in vitro ADME. The note with it: HLM, apparent Ki, reversible inhibition. The protocol:
(§1) The CYP enzyme reverse inhibition and mechanism-based inhibition (MBI) parameters were estimated in the human liver microsome (HLM) incubation in vitro studies. The reported reversible inhibition parameter (i.e., apparent Ki) values for CYP2C8, CYP2C9, and CYP2D6, along with the MBI parameters (i.e., KI or Kapp and kinact) for CYP2C19 and CYP3A4, were supplied to the PBPK DDI model (see Table 2).
A general note: Liver microsomes are vesicles of endoplasmic reticulum, rich in cytochrome P450 enzymes.

The next series concerns CYP3A4. The series is described as follows: CYP3A induction in primary human hepatocytes (IHH0014). Format: in vitro ADME. From the text: The induction effect of fedratinib on CYP3A gene expression was identified using human hepatocytes in primary culture. The reported kinetic data, i.e., concentration-dependent fold induction of CYP3A mRNA levels, were fitted to estimate the Indmax and IndC50 values for fedratinib with calibration against the induction effect observed for the positive control compound rifampin [9].

The target in another series is T3, CYP2C19 (Homo sapiens, UniProt P33261).
T3 construct: from tissue; host or cells: human liver microsomes
T3 sequence (P33261 whole entry): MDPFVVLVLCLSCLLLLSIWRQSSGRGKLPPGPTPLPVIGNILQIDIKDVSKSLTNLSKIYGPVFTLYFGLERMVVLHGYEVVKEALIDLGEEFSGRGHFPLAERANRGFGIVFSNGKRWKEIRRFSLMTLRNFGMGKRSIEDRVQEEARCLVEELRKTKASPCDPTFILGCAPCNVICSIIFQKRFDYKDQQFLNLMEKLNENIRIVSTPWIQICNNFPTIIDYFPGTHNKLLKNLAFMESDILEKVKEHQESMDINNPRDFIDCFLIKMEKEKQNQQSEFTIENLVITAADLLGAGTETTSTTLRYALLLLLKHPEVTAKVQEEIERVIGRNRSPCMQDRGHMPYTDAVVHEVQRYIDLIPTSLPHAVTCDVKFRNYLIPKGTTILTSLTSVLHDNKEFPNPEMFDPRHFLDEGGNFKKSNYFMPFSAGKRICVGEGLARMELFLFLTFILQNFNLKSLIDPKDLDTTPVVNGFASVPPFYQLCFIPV
Put plainly: CYP mechanism-based inhibition in human liver microsomes (MIH0887), CYP2C19. The note with it: HLM. Format: in vitro ADME. Here is the method:
as §1

As to `Cc1cnc(Nc2ccc(OCCN3CCCC3)cc2)nc1Nc1cccc(S(=O)(=O)NC(C)(C)C)c1` [Fedratinib], the Ki came to 8.4 µM on OATP1B3 (from IC50 by Cheng-Prusoff, probe CCK8) and 50.4 µM on CYP2C8. Inhibition at OATP1B3 (probe CCK8 0.5 μM) was half-maximal at 9.51 µM (IC50). In series [1], the CL/F – broadly, the apparent clearance, not corrected for the fraction that reaches the circulation – was found to be 33.3 L/h. Also, in the series with CYP3A4 (Simcyp input), the “CYP3A4 Ind max” value stood at 78.000. The EC50 in the series with CYP3A4 (human, human hepatocytes in primary culture, CYP3A mRNA, fitted, calibrated against rifampin, read-out: CYP3A4 IndC50) is 5.3 µM. In addition, the “CYP3A Indmax” value in the series with CYP3A4 (maximal fold induction over vehicle, CYP3A mRNA, calibrated against rifampin) was found to be 78.0. In addition, the “CYP2C19 KI or Kapp” value at CYP2C19 amounted to 112 µM; at CYP2C19 (listed as fedratinib) it was 112.000 µM. Moreover, the kinact (as a rule, the maximal first-order rate at which the target is inactivated) at CYP2C19 (human, human liver microsomes) is 0.000558 s⁻¹.
